Test system: 439559-082-T-J2-PDC spheroid viability
Test: Anticancer human tumor 439559-082-T-J2-PDC patient-derived colon adenocarcinoma cell line growth inhibition [POLQ]
Settings: spheroids with HUVEC and MSC; for IC50: curve of first compound; for viability, T/C: stronger effect = lower value
Protocol: Multicellular complex tumor spheroid response to Polymerase (POL) inhibitors (novobiocin, ART-558, RP6685) in combination with a variety of drugs and investigational agents in selected tumor cell lines
The POL inhibitors (novobiocin, ART-558, and RP6685) were evaluated both individually and in combination with standard of care and investigational anticancer small molecules within a complex spheroid model of solid tumors. . Complex spheroids include a stromal component modeled by human endothelial cells (HUVEC) and fibroblasts modeled by human mesenchymal stem cells (MSCs). The concentration ranges selected for each drug and investigational agent were based upon clinically achievable concentrations if the clinical Cmax of the agent was known.
Compounds. The drugs and investigational agents: novobiocin (NSC847541), ART-558 (NSC835418), RP-6685 (NSC848927), peposertib (NSC802822), ceralasertib (NSC780249), elimusertib (NSC800525), camonsertib (NSC841442), AZD-1390 (NSC803789), olaparib (NSC753686), talazoparib (NSC767125), rucaparib (NSC756644), sotorasib (NSC818433), MRTX-1133 (NSC836407), SN-38 (NSC673596), topotecan (NSC609699), epotoside (NSC141540), doxorubicin (NSC123127), gemcitabine (NSC613327), 5-fluorouracil (NSC19893), paclitaxel (NSC125973), vemurafenib (NSC761431), MSA-2 (NSC828583), SN-011 (NSC837082), adavosertib (NSC754352), prexasertib (NSC758257), carboplatin (NSC241240) and oxaliplatin (NSC266046), were obtained from the National Cancer Institute (NCI) Developmental Therapeutics Program Chemical Repository (21). The FDA-approved anticancer drug set is available from the Developmental Therapeutics Program at https://dtp.cancer.gov/organization/dscb/obtaining/. […] The stock solutions were prepared in dimethyl sulfoxide (DMSO, Sigma-Aldrich, St. Louis, MO, cat. D2650), except for the platinum compounds which were prepared in saline (Quality Biological, Gaithersburg, MD, cat. 114-055-101), at 800-fold the tested concentration and stored at -70 degrees C prior to their use. All drugs and investigational agents were tested over a range starting from a high concentration at or near the clinical Cmax and decreasing in half-log increments. If the clinical Cmax for an agent had not been determined, the highest concentration tested was 10 microM, except for SN-38, which was tested at a high concentration of 1 microM.
Cell Culture. All cells were maintained in an incubator at 37 degrees C and 5% CO2 with 95% humidity. The PDC lines were cultured according to standard operating procedures established by the NCI PDMR (https://pdmr.cancer.gov). Table 3 of the manuscript, lists the cell lines along with the number of the three cell types plated to form the mct-spheroids and media for tumor cell growth. After thawing, all PDC lines, except 997537-175-T-J1-PDC and 415267-285-R-J2-PDC, were cultured in Matrigel-coated flasks prepared with a working solution of 1X Ham's F-12 nutrient mix, without supplementation (Thermo Fisher Scientific, cat. 11765054), 100 U/mL penicillin-streptomycin (Thermo Fisher Scientific, cat. 15140122), and 2.5% Matrigel (Corning Inc., Corning, NY, cat. 354248) for the first three passages. The two PDC lines 997537-175-T-J1-PDC and 415267-285-R-J2-PDC were cultured on uncoated flasks. The 857933-349-R-J2-PDC line was cultured in 6C/Colon 1B media containing advanced DMEM/F-12 (Thermo Fisher Scientific, cat. 12634028), 10 mM HEPES (Thermo Fisher Scientific, cat. 15630080), 1X GlutaMAX supplement (Thermo Fisher Scientific, cat. 35050061), 0.1 mg/mL primocin (InvivoGen, San Diego, CA, cat. ant-pm-2), 10% defined fetal bovine serum, heat inactivated (HyClone Laboratories Inc., Logan, UT, cat. SH30070.03HI), 50% L-WRN conditioned media (ATCC, cat. CRL-3276), 1.25 mM N-Acetyl-L-cysteine (Sigma-Aldrich, cat. A9165), 10 mM nicotinamide (Sigma-Aldrich, cat. N0636), 1X B-27 supplement (Thermo Fisher Scientific, cat. 17504044), 1X N-2 supplement (Thermo Fisher Scientific, cat. […]
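Note: spheroids exposed to compounds for seven days before readout.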
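Throughout, for viability, T/C: 100% = DMSO vehicle control viability.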

**Q.** How did the IC50 (second compound 0.0316 µM) turn out when `CC[C@@]1(O)C(=O)OCc2c1cc1n(c2=O)Cc2cc3c(CN(C)C)c(O)ccc3nc2-1` + COC1C(OC(N)=O)C(O)C(Oc2ccc3c(O)c(NC(=O)c4ccc(O)c(CC=C(C)C)c4)c(=O)oc3c2C)OC1(C)C was run?
**A.** The IC50 was over 100 nM.

**Q.** And the IC50 (second compound 0.1 µM)?
**A.** Its IC50 is over 100 nM.

**Q.** What about the IC50 (second compound 0.316 µM) of the same compound?
**A.** The IC50 was over 100 nM.

**Q.** What about the IC50 (second compound 1 µM) of the same compound?
**A.** The IC50 was over 100 nM.

**Q.** And the IC50 (second compound 3.16 µM)?
**A.** The IC50 was over 100 nM.

**Q.** What about the IC50 (second compound 10 µM) of the same compound?
**A.** The IC50 was over 100 nM.

**Q.** What about the viability, T/C (second compound 0.0316 µM, first compound 0.000316 µM) of the same compound?
**A.** Its viability, T/C is 99%.

**Q.** And the viability, T/C (second compound 0.0316 µM, first compound 0.001 µM)?
**A.** Its viability, T/C is 100%.

**Q.** What about the viability, T/C (second compound 0.0316 µM, first compound 0.00316 µM) of the same compound?
**A.** The viability, T/C was 92.3%.

**Q.** What about the viability, T/C (second compound 0.0316 µM, first compound 0.01 µM) of the same compound?
**A.** The viability, T/C was 96.1%.

**Q.** And the viability, T/C (second compound 0.0316 µM, first compound 0.0316 µM)?
**A.** Its viability, T/C is 89.5%.

**Q.** What about the viability, T/C (second compound 0.0316 µM, first compound 0.1 µM) of the same compound?
**A.** Its viability, T/C is 74.2%.

**Q.** What about the viability, T/C (second compound 0.1 µM, first compound 0.000316 µM) of the same compound?
**A.** The viability, T/C was 99%.

**Q.** What about the viability, T/C (second compound 0.1 µM, first compound 0.001 µM) of the same compound?
**A.** The viability, T/C was 98.5%.

**Q.** And the viability, T/C (second compound 0.1 µM, first compound 0.00316 µM)?
**A.** The viability, T/C was 101%.

**Q.** What about the viability, T/C (second compound 0.1 µM, first compound 0.01 µM) of the same compound?
**A.** The viability, T/C was 101%.

**Q.** What about the viability, T/C (second compound 0.1 µM, first compound 0.0316 µM) of the same compound?
**A.** The viability, T/C was 87.7%.

**Q.** What about the viability, T/C (second compound 0.1 µM, first compound 0.1 µM) of the same compound?
**A.** Its viability, T/C is 79.2%.

**Q.** What about the viability, T/C (second compound 0.316 µM, first compound 0.000316 µM) of the same compound?
**A.** Its viability, T/C is 97.3%.

**Q.** What about the viability, T/C (second compound 0.316 µM, first compound 0.001 µM) of the same compound?
**A.** Its viability, T/C is 99.5%.

**Q.** And the viability, T/C (second compound 0.316 µM, first compound 0.00316 µM)?
**A.** The viability, T/C was 105%.

**Q.** What about the viability, T/C (second compound 0.316 µM, first compound 0.01 µM) of the same compound?
**A.** The viability, T/C was 93.7%.

**Q.** And the viability, T/C (second compound 0.316 µM, first compound 0.0316 µM)?
**A.** The viability, T/C was 92.3%.

**Q.** And the viability, T/C (second compound 0.316 µM, first compound 0.1 µM)?
**A.** The viability, T/C was 79.1%.

**Q.** What about the viability, T/C (second compound 1 µM, first compound 0.000316 µM) of the same compound?
**A.** Its viability, T/C is 105%.

**Q.** And the viability, T/C (second compound 1 µM, first compound 0.001 µM)?
**A.** The viability, T/C was 115%.

**Q.** What about the viability, T/C (second compound 1 µM, first compound 0.00316 µM) of the same compound?
**A.** Its viability, T/C is 104%.

**Q.** And the viability, T/C (second compound 1 µM, first compound 0.01 µM)?
**A.** Its viability, T/C is 97.5%.

**Q.** What about the viability, T/C (second compound 1 µM, first compound 0.0316 µM) of the same compound?
**A.** The viability, T/C was 94.2%.

**Q.** And the viability, T/C (second compound 1 µM, first compound 0.1 µM)?
**A.** Its viability, T/C is 82.5%.

**Q.** And the viability, T/C (second compound 3.16 µM, first compound 0.000316 µM)?
**A.** Its viability, T/C is 100%.

**Q.** What about the viability, T/C (second compound 3.16 µM, first compound 0.001 µM) of the same compound?
**A.** Its viability, T/C is 99.8%.

**Q.** What about the viability, T/C (second compound 3.16 µM, first compound 0.00316 µM) of the same compound?
**A.** Its viability, T/C is 105%.

**Q.** And the viability, T/C (second compound 3.16 µM, first compound 0.01 µM)?
**A.** The viability, T/C was 92.6%.

**Q.** What about the viability, T/C (second compound 3.16 µM, first compound 0.0316 µM) of the same compound?
**A.** The viability, T/C was 94.4%.

**Q.** And the viability, T/C (second compound 3.16 µM, first compound 0.1 µM)?
**A.** Its viability, T/C is 74.7%.

**Q.** And the viability, T/C (second compound 10 µM, first compound 0.000316 µM)?
**A.** Its viability, T/C is 105%.

**Q.** What about the viability, T/C (second compound 10 µM, first compound 0.001 µM) of the same compound?
**A.** The viability, T/C was 101%.

**Q.** And the viability, T/C (second compound 10 µM, first compound 0.00316 µM)?
**A.** Its viability, T/C is 94.5%.

**Q.** And the viability, T/C (second compound 10 µM, first compound 0.01 µM)?
**A.** The viability, T/C was 100%.

**Q.** And the viability, T/C (second compound 10 µM, first compound 0.0316 µM)?
**A.** The viability, T/C was 91.3%.

**Q.** What about the viability, T/C (second compound 10 µM, first compound 0.1 µM) of the same compound?
**A.** The viability, T/C was 77.6%.

From PubChem BioAssay AID1963841 (Molecular Pharmacology Branch, DTP, NCI, 2024)
